# Laboratory results from article PMC7126999 (Bioorganic & Medicinal Chemistry, 2015).
# Where “and” joins values, the source holds several entries; their conditions need not be identical. Equal values may be shown once. Read-outs that look alike come from different tables or passages of the source.
# How the values were obtained:
# HEL cells = experiment: Cytotoxicity, cell morphology; type: cell-based, human; conditions: exp. 1 and exp. 2
# [1] = Cell viability of MDCK cells, formazan-based MTS assay; parameters: species or system canine; conditions: dog, MDCK cells
# [2] = Cell viability of CrFK cells, formazan-based MTS assay; parameters: species or system feline; conditions: cat, CrFK cells
# [3] = system: human cervix carcinoma HeLa cells; experiment: Inhibition of proliferation of human cervix carcinoma HeLa cells; type: cell-based; conditions: read-out: IC50 HeLa
# HSV and Vaccinia viruses = experiment: microbe, parasite or virus in culture; type: cell-based, herpes simplex virus; vaccinia virus; conditions: Orthopoxvirus vaccinia, read-out: EC50 against HSV and Vaccinia viruses
# [4] = system: three strains of herpes simplex virus; type: cell-based; conditions: HEL, read-out: EC50 against three strains of herpes simplex virus
# Vaccinia virus = experiment: microbe, parasite or virus in culture; type: cell-based; conditions: for EC50: Orthopoxvirus vaccinia, HEL, read-out: EC50 Vaccinia virus
# human lymphocyte CEM = experiment: Inhibition of proliferation of human T-lymphocyte CEM cells; type: cell-based; conditions: for cytostatic activity against CEM relative to 5-fluorouracil: fold more active than 5-fluorouracil; for IC50: read-out: IC50 CEM
# [5] = system: L1210, CEM and HeLa cell lines; experiment: Cytostatic activity on L1210, CEM and HeLa cell lines; type: cell-based, murine; human; conditions: fold more cytostatic than cis-9d / cis-9f
# cytomegalovirus = experiment: Antiviral activity against cytomegalovirus in HEL cells; type: cell-based, human cytomegalovirus (HCMV); conditions: read-out: EC50 toward cytomegalovirus, strain not specified
# MDCK cells = experiment: Cell viability of MDCK cells, formazan-based MTS assay; parameters: species or system canine; conditions: read-out: CC50 MDCK; cell viability, colorimetric formazan-based MTS assay
# CrFK cells = experiment: Cell viability of CrFK cells, formazan-based MTS assay; parameters: species or system feline; conditions: read-out: CC50 CrFK; cell viability, colorimetric formazan-based MTS assay
# murine leukemia L1210 = experiment: Inhibition of proliferation of murine leukemia L1210 cells; type: cell-based; conditions: read-out: IC50 L1210; inhibit tumor cell proliferation by 50%
# Punta Toro virus = experiment: microbe, parasite or virus in culture; type: cell-based; conditions: Vero, read-out: EC50 Punta Toro virus
# Coxsackie virus B4 = type: cell-based; conditions: Vero cell cultures; DS-10.000 in μg/ml
# [6] = Table 3 (cytomegalovirus assays)
# [7] = inhibit tumor cell proliferation by 50%
compound,measurement,setting,value
"CCCN1C(=O)c2cccc3cc(NC(=O)[C@H]4C[C@@H](P(=O)(OCC)OCC)N(C)O4)cc(c23)C1=O (racemic) [cis-9a, Diethyl cis-5-(N-propylnaphthalimide-3-ylcarbamoyl)-2-methylisoxazolidin-3-yl-3-phosphonate]",Cytotoxicity Cell morphology MCC,HEL cells; [6],>100 μM
same,Cytotoxicity Cell morphology MCC,HEL cells; Table 4 (VZV assays),>100 μM
"CCCCN1C(=O)c2cccc3cc(NC(=O)[C@H]4C[C@@H](P(=O)(OCC)OCC)N(C)O4)cc(c23)C1=O (racemic) [cis-9b, Diethyl cis-5-(N-butylnaphthalimide-3-ylcarbamoyl)-2-methylisoxazolidin-3-yl-3-phosphonate]",Cytotoxicity Cell morphology MCC,HEL cells; [6],100 μM
same,Cytotoxicity Cell morphology MCC,HEL cells; Table 4 (VZV assays),>100 μM
same,CC50,[1],> 100 µM
same,CC50,[2],> 100 µM
same,IC50,"[3]; Homo sapiens, HeLa",25 ± 3 µM
"CCOP(=O)(OCC)[C@@H]1C[C@H](C(=O)Nc2cc3c4c(cccc4c2)C(=O)N(CC(C)C)C3=O)ON1C (racemic) [cis-9c, Diethyl cis-5-(N-isobutylnaphthalimide-3-ylcarbamoyl)-2-methylisoxazolidin-3-yl-3-phosphonate]",Cytotoxicity Cell morphology MCC,HEL cells; [6],>100 μM
same,Cytotoxicity Cell morphology MCC,HEL cells; Table 4 (VZV assays),>100 μM
"CCOP(=O)(OCC)[C@@H]1C[C@H](C(=O)Nc2cc3c4c(cccc4c2)C(=O)N(CCN(C)C)C3=O)ON1C (racemic) [cis-9d, Diethyl cis-5-[N-(2-dimethylamino)ethylnaphthalimide-3-ylcarbamoyl]-2-methylisoxazolidin-3-yl-3-phosphonate]",EC50,HSV and Vaccinia viruses,45 to 58 µM
same,EC50,[4],45 to 100 µM
same,Cytotoxicity Cell morphology MCC,HEL cells; [6],>100 μM
same,Cytotoxicity Cell morphology MCC,HEL cells; Table 4 (VZV assays),100 μM
"CCOP(=O)(OCC)[C@@H]1C[C@H](C(=O)Nc2cc3c4c(cccc4c2)C(=O)N(CCN(CC)CC)C3=O)ON1C (racemic) [cis-9e, Diethyl cis-5-[N-(2-diethylamino)ethylnaphthalimide-3-ylcarbamoyl]-2-methylisoxazolidin-3-yl-3-phosphonate]",CC50,[1],> 100 µM
"CCOP(=O)(OCC)[C@@H]1C[C@H](C(=O)Nc2cc3c4c(cccc4c2)C(=O)N(CCN2CCCC2)C3=O)ON1C (racemic) [cis-9f, Diethyl cis-5-[N-(2-pirolidyn-1-yl)ethylnaphthalimide-3-ylcarbamoyl]-2-methylisoxazolidin-3-yl-3-phosphonate]",Cytotoxicity Cell morphology MCC,HEL cells; [6],>100 μM
same,Cytotoxicity Cell morphology MCC,HEL cells; Table 4 (VZV assays),100 μM and >100 μM
same,EC50,Vaccinia virus,45 to 100 µM
"CCCN1C(=O)c2cccc3cc(NC(=O)[C@@H]4C[C@@H](P(=O)(OCC)OCC)N(C)O4)cc(c23)C1=O (racemic) [trans-9a, Diethyl trans-5-(N-propylnaphtalimide-3-ylcarbamoyl)-2-methylisoxazolidin-3-yl-3-phosphonate]",Cytotoxicity Cell morphology MCC,HEL cells; [6],>100 μM
same,Cytotoxicity Cell morphology MCC,HEL cells; Table 4 (VZV assays),>100 μM
same,CC50,[2],> 100 µM
"CCCCN1C(=O)c2cccc3cc(NC(=O)[C@@H]4C[C@@H](P(=O)(OCC)OCC)N(C)O4)cc(c23)C1=O (racemic) [trans-9b, Diethyl trans-5-(N-butylnaphthalimide-3-ylcarbamoyl)-2-methylisoxazolidin-3-yl-3-phosphonate]",Cytotoxicity Cell morphology MCC,HEL cells; [6],100 μM
same,Cytotoxicity Cell morphology MCC,HEL cells; Table 4 (VZV assays),>100 μM
"CCOP(=O)(OCC)[C@@H]1C[C@@H](C(=O)Nc2cc3c4c(cccc4c2)C(=O)N(CCN(C)C)C3=O)ON1C (racemic) [trans-9d, Diethyl trans-5-[N-(2-dimethylamino)ethylnaphthalimide-3-ylcarbamoyl]-2-methylisoxazolidin-3-yl-3-phosphonate]",EC50,HSV and Vaccinia viruses,45 to 58 µM
same,EC50,[4],45 to 100 µM
same,Cytotoxicity Cell morphology MCC,HEL cells; [6],100 μM
same,Cytotoxicity Cell morphology MCC,HEL cells; Table 4 (VZV assays),>100 μM
same,cytostatic activity against CEM relative to 5-fluorouracil,human lymphocyte CEM,five-fold
same,cytostatic activity of trans-isomer relative to corresponding cis-isomer,[5],two-fold
"CCOP(=O)(OCC)[C@@H]1C[C@@H](C(=O)Nc2cc3c4c(cccc4c2)C(=O)N(CCN(CC)CC)C3=O)ON1C (racemic) [trans-9e, Diethyl trans-5-[N-(2-diethylamino)ethylnaphthalimide-3-ylcarbamoyl]-2-methylisoxazolidin-3-yl-3-phosphonate]",CC50,[2],> 100 µM
"CCOP(=O)(OCC)[C@@H]1C[C@@H](C(=O)Nc2cc3c4c(cccc4c2)C(=O)N(CCN2CCCC2)C3=O)ON1C (racemic) [trans-9f, Diethyl trans-5-[N-(2-pirolidyn-1-yl)ethylnaphthalimide-3-ylcarbamoyl]-2-methylisoxazolidin-3-yl-3-phosphonate]",EC50,HSV and Vaccinia viruses,45 to 58 µM
same,EC50,[4],45 to 100 µM
same,Cytotoxicity Cell morphology MCC,HEL cells; [6],100 μM
same,Cytotoxicity Cell morphology MCC,HEL cells; Table 4 (VZV assays),100 μM
same,cytostatic activity against CEM relative to 5-fluorouracil,human lymphocyte CEM,five-fold
same,EC50,cytomegalovirus,8.9 to 20 µM
same,cytostatic activity of trans-isomer relative to corresponding cis-isomer,[5],two-fold
"CCOP(=O)(OCC)[C@H]1C[C@H](CN2C(=O)c3cccc4cccc(c34)C2=O)ON1C (relative stereo) [trans-10a/cis-10a (93:7), Diethyl trans-5-(1,3-dioxo-2,3-dihydro-1H-benzo[de]izochinolin-2-ylmethyl)-2-methylisoxazolidin-3-yl-3-phosphonate]",IC50,human lymphocyte CEM; [7],111 ± 14 µM
same,CC50,MDCK cells,> 100 µM
same,CC50,CrFK cells,> 100 µM
same,IC50,murine leukemia L1210,180 ± 47 µM
same,IC50,[3]; [7],77 ± 20 µM
"CCOP(=O)(OCC)[C@H]1C[C@H](CN2C(=O)c3cccc4cc([N+](=O)[O-])cc(c34)C2=O)ON1C (relative stereo) [trans-10b/cis-10b (94:6), Diethyl trans-5-(5-nitro-1,3-dioxo-2,3-dihydro-1H-benzo[de]izochinolin-2-ylmethyl)-2-methylisoxazolidin-3-yl-3-phosphonate]",IC50,human lymphocyte CEM; [7],51 ± 6 µM
same,CC50,MDCK cells,> 100 µM
same,CC50,CrFK cells,> 100 µM
same,IC50,murine leukemia L1210,34 ± 6 µM
same,IC50,[3]; [7],20 ± 3 µM
"CCOP(=O)(OCC)[C@H]1C[C@H](CN2C(=O)c3cccc4cc(N)cc(c34)C2=O)ON1C (relative stereo) [trans-10c/cis-10c (93:7), Diethyl trans-5-(5-amino-1,3-dioxo-2,3-dihydro-1H-benzo[de]izochinolin-2-ylmethyl)-2-methylisoxazolidin-3-yl-3-phosphonate]",IC50,human lymphocyte CEM; [7],99 ± 2 µM
same,CC50,MDCK cells,> 100 µM
same,CC50,CrFK cells,> 100 µM
same,IC50,murine leukemia L1210,95 ± 42 µM
same,IC50,[3]; [7],101 ± 58 µM
"CCOP(=O)(OCC)[C@H]1C[C@H](CN2C(=O)c3cccc4cc(NC(C)=O)cc(c34)C2=O)ON1C (relative stereo) [trans-10d/cis-10d (93:7), Diethyl trans-5-(5-acetamido-1,3-dioxo-2,3-dihydro-1H-benzo[de]izochinolin-2-ylmethyl)-2-methylisoxazolidin-3-yl-3-phosphonate]",IC50,human lymphocyte CEM; [7],125 ± 4 µM
same,CC50,MDCK cells,> 100 µM
same,CC50,CrFK cells,> 100 µM
same,IC50,murine leukemia L1210,136 ± 14 µM
same,IC50,[3]; [7],111 ± 3 µM
"O=c1[nH]cc(F)c(=O)[nH]1 [5-Fluorouracil, reference compound]",IC50,"human lymphocyte CEM; Homo sapiens, Lymphocyte",18 ± 5 µM
same,IC50,"[3]; Homo sapiens, HeLa",0.54 ± 0.12 µM
"Nc1nc2c(ncn2COCCO)c(=O)[nH]1 [Acyclovir, acyclovir]","activity against vaccinia virus, in words",Vaccinia virus,inactive
"O=c1[nH]c(=O)n([C@H]2C[C@H](O)[C@@H](CO)O2)cc1/C=C/Br [Brivudin, brivudin, reference compound]",Cytotoxicity Cell morphology MCC,HEL cells; Table 4 (VZV assays),>300 μM
same,EC50,Vaccinia virus,17 to 22 µM
"Nc1ccn(C[C@@H](CO)OCP(=O)(O)O)c(=O)n1.O.O [Cidofovir, cidofovir, reference compound]",Cytotoxicity Cell morphology MCC,HEL cells; [6],>350 μM
"Nc1nc2c(ncn2COC(CO)CO)c(=O)[nH]1 [Ganciclovir, ganciclovir, reference compound]",Cytotoxicity Cell morphology MCC,HEL cells; [6],>350 μM
same,"activity against vaccinia virus, in words",Vaccinia virus,inactive
"NC(=O)c1ncn([C@@H]2O[C@H](CO)[C@@H](O)[C@H]2O)n1 [Ribavirin, ribavirin]",EC50,Punta Toro virus,250 µM
"CCOP(=O)(OCC)[C@@H]1C[C@@H](C(=O)Nc2cc3c4c(cccc4c2)C(=O)N(CC(C)C)C3=O)ON1C [trans-9c, Diethyl trans-5-(N-isobutylnaphthalimide-3-ylcarbamoyl)-2-methylisoxazolidin-3-yl-3-phosphonate]",Cytotoxicity Cell morphology MCC,HEL cells; [6],>100 μM
same,Cytotoxicity Cell morphology MCC,HEL cells; Table 4 (VZV assays),>100 μM
same,CC50,[2],> 100 µM
dextran sulfate [DS-10.000],EC50 Coxsackie virus B4,Coxsackie virus B4,>100 µg/mL
